Entries after “also recorded” stand apart in the source; their conditions may differ. Read-outs that look alike come from different tables or passages of the source.
Experiments:
healthy volunteers [1] = test: Clinical adverse events (weekly diaries, blinded relatedness assessment), Phase I RCT; format: in vivo, human
Experimental: Adverse events (AEs) were recorded in weekly diaries provided to each volunteer. The relatedness of these AEs to the study drugs was assessed by two physicians (FM, CH) based on temporal association and biological plausibility using five categories: definitely not, unlikely, possibly, probably, and definitely related. The AEs reported in this manuscript include all AEs assessed as possibly, probably, or definitely related.
Quantitative data are presented as the mean ± standard deviation or as median and range, as appropriate. […] Due to a lack of normality, the nonparametric Mann-Whitney U test was used to compare independent samples; the Wilcoxon or Friedman test (whichever was appropriate) was used to compare repeated measures of the QTc interval. All statistical tests were two-sided with an α (significance level) of 0.05. Analyses were performed using the SPSS 11.0 statistical software (SPSS, Chicago, Illinois, United States). All analyses were based on allocation by intent-to-treat.

[2] = Urinary excretion and renal clearance (24-hour urine collections, days 1-3)
[3] = tested on: CQ-resistant P. falciparum; details: cited from earlier work
[4] = tested on: CQ-resistant P. falciparum; details: CQ-resistant P. falciparum in the squirrel monkey; cited from earlier work
P. cynomolgi = details: cited from earlier work
healthy volunteers [5] = test: Post-dose clinical and laboratory follow-up (hematology, chemistry, organ toxicity); format: in vivo, human
[6] = Blood pharmacokinetics after oral dosing (fluorescence HPLC, noncompartmental WinNonlin model); format: in vivo, human; details: for Cmax / Vd/F / MRT / Tmax / half-life / AUC: human, whole blood; for Cmax: read-out: Cmax; for MRT: read-out: MRT (converted); for AUC: po
Experimental: Study drugs were administered in the GCRC on an empty stomach between 8 and 9 AM the morning after admission (after fasting for ≥ 10 h).

QT interval = test: Effects on the QT interval (ECG and Holter recordings, Bazett correction); details: for QTc interval, Baseline: before dosing
Experimental: The effects of the study drugs on the QT interval were assessed by comparing QT intervals before dosing with QT intervals 4 h after dosing, and at the 2 wk follow-up. […] QT intervals were measured manually and electronically (Rozinn Electronics, Glendale, New York, United States). […] Correction of the QT interval for heart rate (i.e., QTc) was performed using Bazett's formula [27].

animals = details: preclinical studies; cited from earlier work
[7] = cited from earlier work
[8] = 1,500 mg CQ (n = 15) / 1,750 mg AQ-13 (n = 14)
[9] = 100, 300 mg doses, n = 16 per drug
[10] = 600/700 mg, AQ-13 n = 25, CQ n = 24
[11] = all doses combined, 63 volunteers per drug
[12] = days 1-3, 1,750 mg AQ-13 / 1,500 mg CQ
[13] = 2 wk follow-up, individual participant
[14] = 1750 mg, 1,750 mg oral over 3 d, median (range)
[15] = single oral 600 mg dose, median (range)
[16] = single oral 700 mg adjustment dose, median (range)
[17] = 1,750 mg AQ-13, 1,500 mg CQ, mean ± SD
[18] = 600/700 mg AQ-13, 600 mg CQ, mean ± SD

## CCN(CC)CCCNc1ccnc2cc(Cl)ccc12 [AQ-13]
Healthy volunteers [1]; 10 mg dose, n = 8 per drug
  related adverse events: None: 0
Healthy volunteers [1]; [8]
  Abdominal pain, number (%): 1 (7%)
  Blurred vision, number (%): 2 (14%)
  Diarrhea, number (%): 4 (29%)
  Difficulty focusing/visual floating objects, number (%): 2 (14%)
  Lightheadedness/Dizziness, number (%): 7 (50%)
  Nausea, number (%): 5 (36%)
  Vomiting, number (%): 2 (14%)
  Weakness/fatigue, number (%): 2 (14%)
Healthy volunteers [1]; 1,500 mg CQ (n = 15) / 1,750 mg AQ-13 (n = 14) over 3 d
  Headache, number (%): 5 (36%)
Healthy volunteers [1]; [9]
  Headache, volunteers with related AE, number (%): 2 (12%)
  Lightheadedness/Dizziness, number (%): 0
  Nausea, number (%): 1 (6%)
Healthy volunteers [1]; [10]
  Abdominal pain, number (%): 2 (8%)
  Diarrhea, number (%): 2 (8%)
  Ear symptoms, number (%): 0
  Headache, number (%): 10 (40%)
  Lightheadedness/Dizziness, number (%): 4 (16%)
  Loss of appetite, number (%): 3 (12%)
  Nausea, number (%): 2 (8%)
  Vomiting, number (%): 2 (8%)
Healthy volunteers [1]; all doses combined
  drug-related GI symptoms, number of reports: 28 reports
Healthy volunteers [1]; [11]
  drug-related lightheadedness/dizziness, volunteers/total: 11/63
  volunteers reporting one or more GI symptoms/total: 14/63
[2]; [12]
  amount of unchanged drug recovered from 24 hour urine collections: 443 µmol
  unchanged drug recovered from 24 hour urine collections, % of total oral dose: 8.4%
[2]; human, urine and whole blood, po, 1750 mg
  CL renal: 55 mL/min
[3]
  activity against resistant malaria parasites in vitro: active against resistant malaria parasites
[4]
  activity in vivo in monkey model: active in vivo
P. cynomolgi; P. cynomolgi in the rhesus monkey
  activity in vivo in monkey model: active in vivo
P. cynomolgi; both monkey models, ref Cogswell, et al., unpublished data
  activity in monkey models of human malaria compared with AQ-21: more active
Healthy volunteers [5]; [13]
  ALT in one participant with abnormal liver function tests: 149
  AST in one participant with abnormal liver function tests: 135 U/l
  alkaline phosphatase in one participant with abnormal liver function tests: 146
  bilirubin in one participant with abnormal liver function test: 1.5 mg/dL
Healthy volunteers [5]; 2 wk follow-up, AQ-13 100 and 300 mg doses, CQ 1,500 mg dose
  volunteers with mildly abnormal liver function tests: two
Healthy volunteers [5]; 4 d after drug administration
  hematologic or chemical toxicities on repeat laboratory testing: no hematologic or chemical toxicities
Healthy volunteers [5]; any dose tested, inpatient exams, 2 and 4 wk follow-up
  organ toxicity: No hematologic, hepatic, renal, or other organ toxicity was observed; also recorded: no clinical evidence for end-organ toxicity
[6]; 600 mg oral dose
  blood level one hour after dosing as % of Cmax: 52%
[6]; 1,750 mg oral over 3 d, median (range)
  Cl/F: 14.0 (6.8–20.3) l/h
[6]; 600 and 1,500/1,750 mg doses
  median oral clearance (range of medians across dose levels): 14.0 to 14.7 L/h
[6]; 1750 mg, 1,750 mg oral over 3 d (700+700+350 mg), median (range)
  Cmax: 3000 nM
[6]; [14]
  Vd/F: 6660 L
  MRT: 13.4 days
[6]; 1750 mg, 1,750 mg oral over 3 d, median (range), read-out: Tmax
  Tmax: 1.14 days
[6]; 1750 mg, 1,750 mg oral over 3 d, median (range), read-out: t½ (converted)
  half-life: 12.9 days
[6]; oral, 1,750 mg AQ-13 / 1,500 mg CQ, 27–28 h after the first dose, read-out: time of peak blood concentration after the second dose
  Tmax: 0.125 to 0.167 days
[6]; 600 mg, single oral 600 mg dose, median (range), read-out: AUCw1 (partial AUC for week 1)
  AUC: 71.8 µM·h
[6]; 600 mg, single oral 600 mg dose, median (range), read-out: AUCτ (total area under the curve)
  AUC: 141 µM·h
[6]; 700 mg, single oral 700 mg adjustment dose, median (range), read-out: AUCw1
  AUC: 96.3 µM·h
[6]; 700 mg, single oral 700 mg adjustment dose, median (range), read-out: AUCτ
  AUC: 342 µM·h
[6]; 1750 mg, 1,750 mg oral over 3 d, median (range), read-out: AUCw1
  AUC: 226 µM·h
[6]; 1750 mg, 1,750 mg oral over 3 d, median (range), read-out: AUCτ
  AUC: 493 µM·h
[6]; [15]
  Vd/F: 6710 L
  MRT: 10.5 days
  Cl/F (apparent oral clearance): 14.7 (7.0–31.1) l/h
[6]; [16]
  Vd/F: 6830 L
  MRT: 23.5 days
  Cmax: 1600 nM
  Cl/F: 11.8 (8.5–19.1) l/h
[6]; single oral 700 mg adjustment dose, median (range), read-out: Tmax
  Tmax: 0.167 days
[6]; single oral 700 mg adjustment dose, median (range), read-out: t½ (converted)
  half-life: 17.9 days
[6]; single oral 600 mg dose (CQ base equivalent), median (range)
  Cmax: 1400 nM
[6]; single oral 600 mg dose, median (range), read-out: Tmax
  Tmax: 0.167 days
[6]; single oral 600 mg dose, median (range), read-out: t½ (terminal elimination half-life) (converted)
  half-life: 14.3 days
[6]; oral doses in healthy volunteers
  linearity of pharmacokinetics: linear pharmacokinetics
QT interval; 1,500 mg CQ (first 600 mg dose) / 1,750 mg AQ-13 (first 700 mg dose)
  mean QTc prolongation after the first dose (day 1): 4 ms
QT interval; 1,500 mg CQ / 1,750 mg AQ-13
  additional QTc increase after the second dose (day 2): 6 ms
QT interval; 1,750 mg AQ-13 (n = 13), 1,500 mg CQ (n = 14), mean ± SD
  QTc interval, Baseline: 397 ± 16 ms
QT interval; [17]
  QTc interval, 2 wk follow-up: 402 ± 13 ms
  QTc interval, 4–5 h post-dose (day 1): 401 ± 14 ms
  QTc interval, 4–5 h post-dose (day 2): 407 ± 11 ms
  QTc interval, 4–5 h post-dose (day 3): 400 ± 11 ms
QT interval; 1,750 mg AQ-13 / 1,500 mg CQ
  mean QTc prolongation, females: 12 ms
QT interval; 1,750 mg AQ-13 / 1,500 mg CQ, 4 h after the second dose on day 2
  mean increase in the QTc interval from baseline: 10 ms
QT interval; 600/700 mg AQ-13 (n = 25), 600 mg CQ (n = 24), mean ± SD
  QTc interval, Baseline: 403 ± 17 ms
QT interval; [18]
  QTc interval, 2 wk follow-up: 405 ± 18 ms
  QTc interval, 4–5 h post-dose (day 1): 414 ± 17 ms
QT interval; 600/700 mg dose
  maximal prolongation of the QTc interval from baseline at the individual level: 42 ms
QT interval; 1,500/1,750 mg dose
  maximal prolongation of the QTc interval from baseline at the individual level: 35 ms
QT interval; 4 h after 600 mg CQ or 600/700 mg AQ-13
  mean increase in the QTc interval from baseline, females: 18 ms
QT interval; 4 h after 600 mg CQ or 600/700 mg AQ-13, not significant
  mean QTc interval change from baseline, males: 1 ms
QT interval; 4 h after 600 mg CQ or 600 or 700 mg AQ-13
  mean increase in the QTc interval from baseline: 11 ms
QT interval; all doses
  arrhythmias or other cardiac AEs: no arrhythmias or other cardiac AEs; also recorded: no cardiac AEs
animals
  toxicity in animals in comparison with CQ: no differences in toxicity
[7]
  clearance in preclinical studies in comparison with CQ: cleared more rapidly than CQ
[7]; rats and monkeys, GLP preclinical studies by SRI International
  oral bioavailability in comparison with CQ: less than that of CQ

From article PMC1764434 (PLoS Clinical Trials, 2007)
